Usually IC50 stands for the midpoint of a concentration-inhibition curve.

The test system of the test is HeLa. The test can be described thus: Cytotoxicity against human HeLa cells by WST-8 assay. Type of test: functional, cell-based.
Compound `[C-]#[N+][C@@]1(C)CC[C@H]2[C@@H]3[C@@H](C(C)=CC[C@@H]31)[C@@H](C=C(C)C)C[C@@H]2C` (relative stereo) showed an IC50 of 20 µM.

In turn, `C[C@H]1C[C@H]2CC(C)(C)CC3=CC[C@@]4(N=C=S)[C@@H]([C@@H]1CC[C@@H]4C)[C@@H]32` had an IC50 of 88.7 µM.

`C[C@H]1CC[C@]23[C@H]1[C@H]2[C@@H](C(C)(C)N=C=S)CC[C@@H]3C` (relative stereo): inhibition was half-maximal at 57.8 µM (IC50).

In the case of `CC1=C[C@@H]2[C@@H](CC1)[C@@](C)(N=C=S)CC[C@H]2C(C)C` (relative stereo), the IC50 was determined as 73.7 µM. The IC50 values of the last two compounds are within 1.5-fold of each other.

`[C-]#[N+][C@@]12CC[C@H](C)C3=C(C=C(C)C)C[C@H](C)[C@@H](CC[C@@H]1C)[C@@H]32` (relative stereo) gave an IC50 of 11.2 µM.

As to `C[C@H]1C[C@H]2CC(C)(C)CC3=CC[C@@]4(N=C=O)[C@@H]([C@@H]1CC[C@@H]4C)[C@@H]32`, half-maximal inhibition (IC50) required 38.3 µM.
